The record followed here is patent US20070059364A1, “Active substance combination comprising a compound with npy receptor affinity and a compound with 5-ht6 receptor affinity” (Laboratorios Del Dr. Esteve S.A., priority 2003, published 2007).

One may read the melting point as the temperature of the solid-liquid transition. Take `Cl.O=C(CN1CCC(N2C(=O)OCc3ccccc32)CC1)Nc1ccc2c(c1)CCC2=O`: the melting point is 272 to 277 °C.

As to `Cl.O=C(CN1CCC(N2C(=O)OCc3ccccc32)CC1)Nc1ccc2c(c1)CCC2`, the melting point fell in the range of 230 to 231 °C.

Consider `CN1CC=C(c2c[nH]c3ccc(NS(=O)(=O)c4cccc5ccccc45)cc23)CC1`, for which the melting point was 244 to 245 °C (dec.).

In turn, `CCn1c2ccccc2c2cc(NC(=O)CN3CCC(N4C(=O)OCc5cc(C)ccc54)CC3)ccc21.Cl` returned a melting point of 247 to 252 °C.

The compound `Cc1ccc2c(c1)COC(=O)N2C1CCN(CC(=O)Nc2ccc(C(=O)c3ccccc3)cc2)CC1.Cl` displayed a melting point of 240 to 244 °C.

`CN(C)CCc1c[nH]c2ccc(NS(=O)(=O)c3ccc(Oc4ccccc4)cc3)cc12`: the melting point lay within 152 to 154 °C.

For the compound `CCN(CC)CCc1c[nH]c2ccc(N(CC)S(=O)(=O)c3ccc4ccccc4c3)cc12`, the melting point lay in the range of 49 to 50 °C.

Compound `CCN(c1ccccc1)c1ccc(NC(=O)CN2CCC(N3C(=O)OCc4ccccc43)CC2)cc1.Cl` registered a melting point of 254 to 257 °C.

In turn, `CN(C)CCn1ccc2cc(NS(=O)(=O)c3ccc4ccccc4c3)ccc21` had a melting point of 54 to 57 °C.

In turn, `CC(C)N(c1ccccc1)c1ccc(NC(=O)CN2CCC(N3C(=O)OCc4ccccc43)CC2)cc1.Cl` yielded a melting point of 171 to 173 °C.

On to `CCCN(CCC)CCc1c[nH]c2ccc(NS(=O)(=O)c3sc4ccc(Cl)cc4c3C)cc12`, for which the melting point was in the range of 90 to 95 °C.

`Cl.O=C(CN1CCC(N2C(=O)OCc3ccccc32)CC1)Nc1ccc(Cl)cc1` came in with a melting point of 272 to 276 °C.

With `Cc1cc2cc(NS(=O)(=O)c3ccc4ccccc4c3)ccc2n1CCN(C)C`, the melting point fell in the range of 199 to 200 °C.

Consider `Cc1cccc2c1N(C1CCN(CC(=O)Nc3ccc4c(c3)-c3ccccc3C4O)CC1)C(=O)OC2.Cl` (stereo not drawn), for which the melting point lay in the range of 207 to 212 °C.

On to `O=S(=O)(Nc1ccc2[nH]cc(CCN3CCOCC3)c2c1)c1ccc2ccccc2c1`, for which the melting point was 85 to 90 °C.

Compound `Cl.O=C(CN1CCC(N2C(=O)OCc3cc(Cl)ccc32)CC1)Nc1ccc(C(F)(F)F)cc1` showed a melting point of 284 to 285 °C.

`O=S(=O)(Nc1ccc2[nH]cc(CCN3CCCC3)c2c1)c1cccc2ccccc12` returned a melting point of 212 to 214 °C.

`O=S(=O)(Nc1ccc2[nH]cc(CCN3CCCC3)c2c1)c1ccc2ccccc2c1`: the melting point fell in the range of 180 to 182 °C.

For the compound `CCCN(CCC)CCc1c[nH]c2ccc(NS(=O)(=O)c3ccc4ccccc4c3)cc12`, the melting point is 58 to 64 °C (dec.).

Take `CN(C)CCc1c[nH]c2ccc(NS(=O)(=O)c3cccc4c(Cl)cccc34)cc12`: the melting point lay within 201 to 203 °C.

In turn, `CN1CCN(CCc2c[nH]c3ccc(NS(=O)(=O)c4ccc5ccccc5c4)cc23)CC1` had a melting point of 129 to 131 °C.

With `Cc1ccc2c(c1)COC(=O)N2C1CCN(CC(=O)Nc2ccccc2C(F)(F)F)CC1`, the melting point was in the range of 169 to 173 °C.

The compound `Cc1ccc2c(c1)COC(=O)N2C1CCN(CC(=O)Nc2ccccc2)CC1` gave a melting point of 154 to 157 °C.

On to `Cc1cccc2c1N(C1CCN(CC(=O)Nc3ccc(C4CCCCC4)cc3)CC1)C(=O)OC2.Cl`, for which the melting point was in the range of 249 to 253 °C.

The compound `Cl.O=C(CN1CCC(N2C(=O)OCc3cc(Cl)ccc32)CC1)Nc1ccc(C2CCCCC2)cc1` yielded a melting point of 249 to 256 °C.

The compound `Cl.O=C(CN1CCC(N2C(=O)OCc3ccccc32)CC1)Nc1ccccc1C(=O)c1ccccc1` came in with a melting point of 211 to 216 °C.

For `Cl.O=C(CN1CCC(N2C(=O)OCc3cc(Cl)ccc32)CC1)Nc1ccc2c(c1)C(O)c1ccccc1-2` (stereo not drawn), the melting point fell in the range of 286 to 289 °C.

`Cc1ccc2c(c1)N(C1CCN(CC(=O)Nc3ccc4c(c3)-c3ccccc3C4O)CC1)C(=O)OC2` (stereo not drawn): the melting point came to 136 °C.

In turn, `Cc1cccc2c1COC(=O)N2C1CCN(CC(=O)Nc2ccc3oc4ccccc4c3c2)CC1` returned a melting point of 204 °C.

For the compound `O=C(CN1CCC(N2C(=O)OCc3ccccc32)CC1)Nc1cccc2c1-c1ccccc1C2O` (stereo not drawn), the melting point is 209 to 210 °C.
